Measured values as given in patent US20260226039A1, “INHIBITORS OF SOLVENT FRONT MUTATED RET KINASE” (Purdue Research Foundation, priority 2023, published 2026).
Where a chain is given by its changes, count along the chain named. ≈ marks a conversion by molar mass, not a printed value.

Columns and labels:
KIF5B-RET WT = biological target: T1, KIF5B-RET WT (Homo sapiens, UniProt P07949); assay: Cell viability assay (CellTiter-Glo) in BaF3 cells expressing KIF5B-RET (B/KR), WT; type: cell-based; conditions: B/KR cell line, read-out: IC50 of RET mutants, WT
T1 construct: KIF5B (fusion partner); expressed in transfected cells; host or cells: BaF3; the other entry of the earlier key: KIF5B (P33176, Kinesin-1 heavy chain)
T1 sequence (P07949 with tags, fused parts or gaps): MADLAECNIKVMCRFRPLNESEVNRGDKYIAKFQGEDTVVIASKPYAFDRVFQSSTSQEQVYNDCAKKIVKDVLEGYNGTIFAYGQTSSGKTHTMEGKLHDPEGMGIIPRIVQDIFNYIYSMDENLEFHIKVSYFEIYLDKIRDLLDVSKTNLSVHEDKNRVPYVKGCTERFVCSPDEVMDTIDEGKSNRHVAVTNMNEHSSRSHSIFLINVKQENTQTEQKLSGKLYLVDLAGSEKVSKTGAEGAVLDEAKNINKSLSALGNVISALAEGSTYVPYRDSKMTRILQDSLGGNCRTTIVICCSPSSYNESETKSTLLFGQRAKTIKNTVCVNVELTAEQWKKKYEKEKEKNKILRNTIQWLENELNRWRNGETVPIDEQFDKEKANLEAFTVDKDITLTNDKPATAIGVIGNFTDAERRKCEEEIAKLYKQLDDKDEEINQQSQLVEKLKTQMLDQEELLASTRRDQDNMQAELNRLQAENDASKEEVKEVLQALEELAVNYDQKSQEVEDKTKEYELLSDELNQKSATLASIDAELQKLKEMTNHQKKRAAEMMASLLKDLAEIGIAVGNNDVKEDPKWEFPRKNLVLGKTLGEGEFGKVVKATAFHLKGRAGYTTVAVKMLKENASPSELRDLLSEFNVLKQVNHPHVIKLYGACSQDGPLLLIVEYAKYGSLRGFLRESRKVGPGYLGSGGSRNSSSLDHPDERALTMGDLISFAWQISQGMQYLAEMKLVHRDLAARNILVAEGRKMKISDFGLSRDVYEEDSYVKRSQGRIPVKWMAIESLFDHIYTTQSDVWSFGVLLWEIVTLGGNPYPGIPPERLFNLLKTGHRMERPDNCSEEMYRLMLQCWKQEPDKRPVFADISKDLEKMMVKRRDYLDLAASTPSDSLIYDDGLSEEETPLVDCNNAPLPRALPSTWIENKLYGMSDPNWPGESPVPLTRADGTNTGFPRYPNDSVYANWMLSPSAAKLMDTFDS
Text: (§1) KIF5B-RET G810D and G810V mutations were generated by PCR-based mutagenesis with primers containing the desired mutations. […] Drug screening and ICso data of BaF3/KR and mutation cells were from 2 or more experiments performed in 3 technical replicates.

KIF5B-RET V804M = biological target: T2, KIF5B-RET V804M (Homo sapiens, UniProt P07949, V804M); assay: Cell viability assay (CellTiter-Glo) in BaF3 cells expressing KIF5B-RET V804M; type: cell-based; conditions: B/KR mutant cell line V804M; read-out: IC50 of RET mutants, V804M
T2 construct: KIF5B (fusion partner); expressed in transfected cells; host or cells: BaF3; the other entry of the earlier key: KIF5B (P33176, Kinesin-1 heavy chain)
T2 sequence (P07949 713-1063 V804M limits assumed): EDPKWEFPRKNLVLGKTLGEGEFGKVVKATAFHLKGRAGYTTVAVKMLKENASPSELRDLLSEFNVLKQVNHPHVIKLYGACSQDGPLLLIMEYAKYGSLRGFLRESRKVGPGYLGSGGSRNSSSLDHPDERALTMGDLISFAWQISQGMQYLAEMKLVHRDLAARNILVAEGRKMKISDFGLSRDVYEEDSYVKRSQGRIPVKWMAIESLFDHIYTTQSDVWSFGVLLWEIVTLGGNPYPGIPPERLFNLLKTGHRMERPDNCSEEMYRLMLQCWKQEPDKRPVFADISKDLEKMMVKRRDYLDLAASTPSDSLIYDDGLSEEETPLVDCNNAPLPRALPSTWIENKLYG
Text: as §1

KIF5B-RET G810A = biological target: T3, KIF5B-RET G810A (Homo sapiens, UniProt P07949, G810A); assay: Cell viability assay (CellTiter-Glo) in BaF3 cells expressing KIF5B-RET G810A; type: cell-based; conditions: B/KR mutant cell line G810A; read-out: IC50 of RET mutants, G810A
T3 construct: KIF5B (fusion partner); expressed in transfected cells; host or cells: BaF3; the other entry of the earlier key: KIF5B (P33176, Kinesin-1 heavy chain)
T3 sequence (P07949 713-1063 G810A limits assumed): T2 sequence (P07949 713-1063 V804M limits assumed) with M92V, G98A
Text: as §1

KIF5B-RET G810C = biological target: T4, KIF5B-RET G810C (Homo sapiens, UniProt P07949, G810C); assay: Cell viability assay (CellTiter-Glo) in BaF3 cells expressing KIF5B-RET G810C; type: cell-based; conditions: B/KR mutant cell line G810C; read-out: IC50 of RET mutants, G810C
T4 construct: KIF5B (fusion partner); expressed in transfected cells; host or cells: BaF3; the other entry of the earlier key: KIF5B (P33176, Kinesin-1 heavy chain)
T4 sequence (P07949 713-1063 G810C limits assumed): T2 sequence (P07949 713-1063 V804M limits assumed) with M92V, G98C
Text: as §1

KIF5B-RET G810D = biological target: T5, KIF5B-RET G810D (Homo sapiens, UniProt P07949, G810D); assay: Cell viability assay (CellTiter-Glo) in BaF3 cells expressing KIF5B-RET G810D; type: cell-based; conditions: B/KR mutant cell line G810D; read-out: IC50 of RET mutants, G810D
T5 construct: KIF5B (fusion partner); expressed in transfected cells; host or cells: BaF3 (lentiviral vector); the other entry of the earlier key: KIF5B (P33176, Kinesin-1 heavy chain)
T5 sequence (P07949 713-1063 G810D limits assumed): T2 sequence (P07949 713-1063 V804M limits assumed) with M92V, G98D
Text: as §1

KIF5B-RET G810R = biological target: T6, KIF5B-RET G810R (Homo sapiens, UniProt P07949, G810R); assay: Cell viability assay (CellTiter-Glo) in BaF3 cells expressing KIF5B-RET G810R; type: cell-based; conditions: B/KR mutant cell line G810R; read-out: IC50 of RET mutants, G810R
T6 construct: KIF5B (fusion partner); expressed in transfected cells; host or cells: BaF3; the other entry of the earlier key: KIF5B (P33176, Kinesin-1 heavy chain)
T6 sequence (P07949 713-1063 G810R limits assumed): T2 sequence (P07949 713-1063 V804M limits assumed) with M92V, G98R
Text: as §1

KIF5B-RET G810S = biological target: T7, KIF5B-RET G810S (Homo sapiens, UniProt P07949, G810S); assay: Cell viability assay (CellTiter-Glo) in BaF3 cells expressing KIF5B-RET G810S; type: cell-based; conditions: B/KR mutant cell line G810S; read-out: IC50 of RET mutants, G810S
T7 construct: KIF5B (fusion partner); expressed in transfected cells; host or cells: BaF3; the other entry of the earlier key: KIF5B (P33176, Kinesin-1 heavy chain)
T7 sequence (P07949 713-1063 G810S limits assumed): T2 sequence (P07949 713-1063 V804M limits assumed) with M92V, G98S
Text: as §1

KIF5B-RET G810V = biological target: T8, KIF5B-RET G810V (Homo sapiens, UniProt P07949, G810V); assay: Cell viability assay (CellTiter-Glo) in BaF3 cells expressing KIF5B-RET G810V; type: cell-based; conditions: B/KR mutant cell line G810V; read-out: IC50 of RET mutants, G810V
T8 construct: KIF5B (fusion partner); expressed in transfected cells; host or cells: BaF3 (lentiviral vector); the other entry of the earlier key: KIF5B (P33176, Kinesin-1 heavy chain)
T8 sequence (P07949 713-1063 G810V limits assumed): T2 sequence (P07949 713-1063 V804M limits assumed) with M92V, G98V
Text: as §1

hERG = hERG (Homo sapiens, UniProt Q12809); assay: hERG inhibition; type: biochemical
Sequence of hERG (Q12809 whole entry): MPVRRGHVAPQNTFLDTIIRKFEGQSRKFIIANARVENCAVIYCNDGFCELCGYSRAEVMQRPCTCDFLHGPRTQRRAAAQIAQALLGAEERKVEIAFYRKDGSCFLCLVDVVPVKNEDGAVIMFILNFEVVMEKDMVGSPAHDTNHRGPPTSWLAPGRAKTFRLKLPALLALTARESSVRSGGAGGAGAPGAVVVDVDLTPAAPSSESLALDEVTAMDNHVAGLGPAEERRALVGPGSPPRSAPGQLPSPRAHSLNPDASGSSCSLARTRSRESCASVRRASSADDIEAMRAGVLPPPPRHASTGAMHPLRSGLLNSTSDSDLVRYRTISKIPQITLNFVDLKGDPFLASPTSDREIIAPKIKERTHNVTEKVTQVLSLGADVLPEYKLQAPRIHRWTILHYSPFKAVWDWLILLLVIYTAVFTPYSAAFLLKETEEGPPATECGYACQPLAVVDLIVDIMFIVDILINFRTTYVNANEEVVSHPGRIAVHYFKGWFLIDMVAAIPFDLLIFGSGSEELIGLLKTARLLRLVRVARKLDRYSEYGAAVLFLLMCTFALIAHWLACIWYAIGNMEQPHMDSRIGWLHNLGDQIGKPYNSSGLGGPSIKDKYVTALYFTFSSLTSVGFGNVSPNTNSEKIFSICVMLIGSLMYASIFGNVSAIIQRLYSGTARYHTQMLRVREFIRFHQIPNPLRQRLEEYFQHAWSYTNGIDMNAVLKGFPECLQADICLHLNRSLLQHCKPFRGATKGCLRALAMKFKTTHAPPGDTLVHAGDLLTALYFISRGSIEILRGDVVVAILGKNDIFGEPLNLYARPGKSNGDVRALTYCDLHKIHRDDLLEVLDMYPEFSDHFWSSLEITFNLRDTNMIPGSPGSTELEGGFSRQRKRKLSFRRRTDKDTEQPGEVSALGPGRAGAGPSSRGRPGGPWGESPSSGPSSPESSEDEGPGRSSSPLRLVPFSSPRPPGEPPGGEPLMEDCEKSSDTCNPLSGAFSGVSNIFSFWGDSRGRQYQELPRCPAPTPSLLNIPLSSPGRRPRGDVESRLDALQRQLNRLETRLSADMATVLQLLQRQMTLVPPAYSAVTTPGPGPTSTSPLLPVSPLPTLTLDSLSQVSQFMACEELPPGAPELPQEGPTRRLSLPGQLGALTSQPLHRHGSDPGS

[1] = Protein binding (human serum); type: in vitro ADME
Solubility at pH 6.8 = type: physicochemical
B/KR(G810C) CDX tumors = assay: In vivo activity on B/KR(G810C) CDX tumors in mice; conditions: daily oral gavage
Description: Mice bearing B/KR(G810C) CDX tumors were treated with the test compounds at the indicated doses by daily oral gavage. Tumor dimensions were measured with a caliper, and tumor sizes were estimated using the Formula: tumor size=(Length×width×width)/2. The data shown are the mean±sd.
BaF3/KR(G810C) cells were tested free of 20 mouse pathogens (IDEXX, Columbia, MO) and mycoplasma. Cells (1×10^7 cells/0.1 ml/each) were inoculated subcutaneously into the right flank of approximately 5-week old female SHO mice (Charles River, Wilmington, MA). After tumor formation, mice (6 mice/group) were treated with vehicle or test compounds at the indicated doses by oral gavage once a day. Tumor size and animal body weight were measured as described. Statistical analysis was performed using the unpaired Mann-Whitney test.

Row | Structure (SMILES) | IC50 (KIF5B-RET WT) [nM] | IC50 (KIF5B-RET V804M) [nM] | IC50 (KIF5B-RET G810A) [nM] | IC50 (KIF5B-RET G810C) [nM] | IC50 (KIF5B-RET G810D) [nM] | IC50 (KIF5B-RET G810R) [nM] | IC50 (KIF5B-RET G810S) [nM] | IC50 (KIF5B-RET G810V) [nM] | IC50 (hERG) [nM] | protein-bound [1] [%] | solubility (Solubility at pH 6.8) [µM] | effect on B/KR(G810C) CDX tumors (B/KR(G810C) CDX tumors; 25 mg/Kg) | effect on B/KR(G810C) CDX tumors (B/KR(G810C) CDX tumors; 50 mg/Kg)
1 | CN1CCN(Cc2ccc(NC(=O)c3cncc(C#Cc4cnc(N)nc4)c3)cc2C(F)(F)F)CC1 [Example 2, 5-((2-Aminopyrimidin-5-yl)ethynyl)-N-(4-((4-methylpiperazin-1-yl)methyl)-3-(trifluoromethyl)phenyl)nicotinamide] | 3.49 ± 0.16 | 20.3 ± 1.09 | 3.89 ± 0.07 | 12.2 ± 0.63 | 1.47 ± 0.05 | 46.8 ± 1.11 | 8.02 ± 0.21 | 8.34 ± 0.36 | 23000 | 94 | 117 (≈ 58 µg/mL) | tumor regression | 
2 | CN1CCN(Cc2ccc(NC(=O)c3cncc(C#Cc4cnc5[nH]ncc5c4)c3)cc2C(F)(F)F)CC1 [Example 1, 5-((1H-Pyrazolo[3,4-b]pyridin-5-yl)ethynyl)-N-(4-((4-methylpiperazin-1-yl)methyl)-3-(trifluoromethyl)phenyl)nicotinamide] | 1.7 ± 0.08 | 14.1 ± 0.54 | 1.56 ± 0.07 | 11.4 ± 0.32 | 5.21 ± 0.36 | 24.5 ± 0.79 | 7.76 ± 0.33 | 4.1 ± 0.3 |  |  |  |  | 
3 | CN1CCN(Cc2ccc(NC(=O)c3cncc(C#Cc4cnc(N)c5ncccc45)c3)cc2C(F)(F)F)CC1 [HSN608, reference compound] |  |  |  |  |  |  |  |  |  | 99 | 0.07 (≈ 0.0382 µg/mL) |  | tumor regression
